# Experimental data reported in patent publication US20250074919A1, “Heteroaryl compounds as inhibitors of irak4, compositions and applications thereof” (Accro Bioscience (HK) Limited, priority 2021, published 2025).
# Molecular target: IRAK4 (Homo sapiens (Human), UniProt Q9NWZ3)
# Experiment: Screening the compounds against IRAK4 with ATP (Caliper, FAM-labeled peptide)
# Format: biochemical
# Conditions: IRAK4 kinase inhibition relative to CA4948
# Experimental: Prepare Ix kinase base buffer and stop buffer for testing kinases: (1) base buffer: 50 mM HEPES (pH 7.5), 0.0015% Brij-35; (2) stop buffer: 100 mM HEPES (pH 7.5), 0.015% Brij-35, 0.2% Coating Reagent #3, 50 mM EDTA. Then prepare compounds for testing: Dilute the compound to 50× of the final desired highest inhibitor concentration in reaction by 100% DMSO. Transfer 100 μL of this compound dilution to a well in a 96-well plate (source plate).
# Serially dilute the compounds by 3-fold for a total of 10 points. Transfer 10 μL of the compound from the source plate to a new 96-well plate (intermediate plate) and add 90 μL of Ix kinase buffer. Shake the mixture on the intermediate plate for 10 min. Transfer 5 μL of each well from the 96-well intermediate plate to a 384-well plate in duplicates. Add 10 μL of 2.5× enzyme solution to each well of the 384-well assay plate and incubate at room temperature for 10 min. Add 10 μL, of 2.5×FAM-labeled peptide and ATP solution and incubate at 28° C. for a period of time. Finally stop the reaction by adding 30 μL of stop buffer and collect data on Caliper to obtain the IC50.
# Sequence of IRAK4 (Q9NWZ3 whole entry): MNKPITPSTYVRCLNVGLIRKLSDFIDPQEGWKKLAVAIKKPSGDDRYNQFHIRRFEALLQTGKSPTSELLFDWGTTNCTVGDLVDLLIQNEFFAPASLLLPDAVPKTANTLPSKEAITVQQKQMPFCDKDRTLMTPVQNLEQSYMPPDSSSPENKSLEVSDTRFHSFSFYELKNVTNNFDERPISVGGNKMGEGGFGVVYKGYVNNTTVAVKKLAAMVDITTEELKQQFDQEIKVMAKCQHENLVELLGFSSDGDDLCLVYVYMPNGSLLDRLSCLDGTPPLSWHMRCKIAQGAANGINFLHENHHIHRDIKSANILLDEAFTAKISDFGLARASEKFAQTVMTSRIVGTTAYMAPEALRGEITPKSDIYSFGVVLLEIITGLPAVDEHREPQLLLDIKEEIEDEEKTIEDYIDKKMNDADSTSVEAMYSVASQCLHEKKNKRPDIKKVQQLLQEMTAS
row,"activity, times better than that of the positive control compound CA4948",SMILES
1,more than 5 times,"COc1nc2nc(N3CCOCC3)oc2cc1C(=O)Nc1cccc(-c2cnn(C)c2)n1 [Compound A54, 5-Methoxy-N-(6-(1-methyl-1H-pyrazol-4-yl)pyridin-2-yl)-2-morpholinooxazolo[4,5-b]pyridine-6-carboxamide]"
2,more than 10 times,"Cn1cc(-c2cccc(NC(=O)c3cc4c(nc3OC3CC3)OC(C)(C)C4)n2)cn1 [Compound B29, 6-Cyclopropoxy-2,2-dimethyl-N-(6-(1-methyl-1H-pyrazol-4-yl)pyridin-2-yl)-2,3-dihydrofuro[2,3-b]pyridine-5-carboxamide]"

# Same assay, conditions: read-out: IC50 (nM) (10 μM ATP)
row,SMILES,IC50 [nM]
1,"CC1(C)Cc2cc(C(=O)Nc3cccn(C4CC4)c3=O)c(N3CCC(O)CC3)nc2O1 [Compound B10, N-(1-Cyclopropyl-2-oxo-1,2-dihydropyridin-3-yl)-6-(4-hydroxypiperidin-1-yl)-2,2-dimethyl-2,3-dihydrofuro[2,3-b]pyridine-5-carboxamide]",479

# Same assay, conditions: read-out: IC50 (nM) (10 μM ATP); IRAK4 kinase, 10 μM ATP
row,IC50 [nM],SMILES
1,54,"CN1CCN(c2nc3c(cc2C(=O)Nc2cccc(-c4cnn(C)c4)n2)CC(C)(C)O3)CC1 [Compound B2, 2,2-Dimethyl-N-(6-(1-methyl-1H-pyrazol-4-yl)pyridin-2-yl)-6-(4-methylpiperazin-1-yl)-2,3-dihydrofuro[2,3-b]pyridine-5-carboxamide]"
2,6.2,"Cn1cc(-c2cccc(NC(=O)c3cc4c(nc3OC3CC3)OC(C)(C)C4)n2)cn1 [Compound B29, 6-Cyclopropoxy-2,2-dimethyl-N-(6-(1-methyl-1H-pyrazol-4-yl)pyridin-2-yl)-2,3-dihydrofuro[2,3-b]pyridine-5-carboxamide]"

# Further lines, the compound ahead of its results:
row,SMILES,IC50 [nM]
1,"COc1nc2nc(N3CCOCC3)oc2cc1C(=O)Nc1cccc(-c2cnn(C)c2)n1 [Compound A54, 5-Methoxy-N-(6-(1-methyl-1H-pyrazol-4-yl)pyridin-2-yl)-2-morpholinooxazolo[4,5-b]pyridine-6-carboxamide]",21
2,"COc1ncccc1NC(=O)c1cc2oc(N3CCOCC3)nc2nc1N1CCC(O)CC1 [Compound A45, 5-(4-Hydroxypiperidin-1-yl)-N-(2-methoxypyridin-3-yl)-2-morpholinooxazolo[4,5-b]pyridine-6-carboxamide]",131
3,"Cn1cc(-c2cccc(NC(=O)c3cc4oc(N5CCOCC5)nc4nc3N3C4CCC3CC(O)C4)n2)cn1 (stereo not shown) [Compound A28, 5-(3-Hydroxy-8-azabicyclo[3.2.1]octan-8-yl)-N-(6-(1-methyl-1H-pyrazol-4-yl)pyridin-2-yl)-2-morpholinooxazolo[4,5-b]pyridine-6-carboxamide]",80
4,"Cn1cc(-c2cccc(NC(=O)c3cc4oc(N5CCNCC5)nc4nc3N3CCC4(CCO4)CC3)n2)cn1 [Compound A55, N-(6-(1-Methyl-1H-pyrazol-4-yl)pyridin-2-yl)-2-(piperazin-1-yl)-5-(1-oxa-7-azaspiro[3.5]nonan-7-yl)oxazolo[4,5-b]pyridine-6-carboxamide]",5.9
5,"Cn1cc(-c2cccc(NC(=O)c3cc4oc(N5CCOCC5)nc4nc3N3CC4(C3)CC(F)(F)C4)n2)cn1 [Compound A15, 5-(6,6-Difluoro-2-azaspiro[3.3]heptan-2-yl)-N-(6-(1-methyl-1H-pyrazol-4-yl)pyridin-2-yl)-2-morpholinooxazolo[4,5-b]pyridine-6-carboxamide]",244
6,"CN1CCN(c2nc3nc(N4CCC(C)(O)CC4)c(C(=O)Nc4cccc(-c5cnn(C)c5)n4)cc3o2)CC1 [Compound A59, 5-(4-Hydroxy-4-methylpiperidin-1-yl)-N-(6-(1-methyl-1H-pyrazol-4-yl)pyridin-2-yl)-2-(4-methylpiperazin-1-yl)oxazolo[4,5-b]pyridine-6-carboxamide]",6.6
7,"Cn1cc(-c2cccc(NC(=O)c3cc4oc(N5CCOCC5)nc4nc3N3CC4(CC(O)C4)C3)n2)cn1 [Compound A22, 5-(6-Hydroxy-2-azaspiro[3.3]heptan-2-yl)-N-(6-(1-methyl-1H-pyrazol-4-yl)pyridin-2-yl)-2-morpholinooxazolo[4,5-b]pyridine-6-carboxamide]",188
8,"Cn1cc(-c2cccc(NC(=O)c3cc4oc(N5CCOCC5)nc4nc3N3CC(C)(O)C3)n2)cn1 [Compound A14, 5-(3-Hydroxy-3-methylazetidin-1-yl)-N-(6-(1-methyl-1H-pyrazol-4-yl)pyridin-2-yl)-2-morpholinooxazolo[4,5-b]pyridine-6-carboxamide]",164
